In patent US20260184733A1, “CRYSTAL FORM OF NEUROKININ-1 ANTAGONIST PRODRUG COMPOUND” (JIANGSU HENGRUI PHARMACEUTICALS CO., LTD., priority 2022, published 2026):

Legend:
Assay type in all cases: physicochemical
[1] = Solvent residue of the crystal forms determined by gas chromatography
Procedure: The solvent residue of the crystal form of the compound represented by formula I was determined by gas chromatography, as shown in the table below.

[2] = Crystal form conversion on stirring in ethyl acetate at room temperature; settings: 1.0 g in 1.5 mL ethyl acetate, stirred at room temperature, filtered, dried under vacuum
Procedure: 1.0 g of the crystal form I of the compound represented by formula I was added to 1.5 mL of ethyl acetate, and the mixture was stirred at room temperature, filtered, and dried under vacuum.
1.0 g of the crystal form III of the compound represented by formula I was added to 1.5 mL of ethyl acetate, and the mixture was stirred at room temperature, filtered, and dried under vacuum.

[3] = Dissolution of the raw material in 50% tert-butanol solution when preparing the lyophilized composition; settings: 4.36% (w/v) in 50% tert-butanol with 5% mannitol, stirred at room temperature
Procedure: Tert-butanol and water were mixed at a volume ratio of 1:1 to form a 50% tert-butanol solution. 90% of the target volume of the solution was taken, and 5% (mass volume percentage) of mannitol and 4.36% of the raw material of the compound represented by formula I were added. The mixture was stirred at room temperature for dissolution (dissolution being considered as the absence of significant blocky or flocculent insoluble substances in the solution). The pH was adjusted to 5 with dilute hydrochloric acid or sodium hydroxide, filtration was performed with a […] organic filtration membrane to obtain a clear solution, and the volume of the clear solution was made constant with 50% tert-butanol. The above-mentioned solution was stored at 4° C. before subpackaging. After subpackaging according to the target volume, half of a stopper was pressed, and a freeze-drying procedure was run. After the completion of the procedure, nitrogen was filled, the remaining stopper was pressed, and the freeze-dried compounds were taken out of the box.

Compound	Solvent residue: 1,4-Dioxane [1] [%]	Solvent residue: Ethylene glycol dimethyl ether [1]	Crystal form after slurrying [2]	Solvent residue, comparison of the crystal forms [1]	Solvent residue: Ethyl acetate [1] [%]	Solvent residue: Methyl tert-butyl ether [1] [%]	Dissolution behaviour of the raw material [3]	Solvent residue: Isopropyl ether [1] [%]
C[C@@H](OC[C@@]1(c2ccccc2)CC[C@]2(CCC(=O)N2)CN1C(=O)OCOP(=O)(O)O)c1cc(C(F)(F)F)cc(C(F)(F)F)c1 [Crystal form III]	6.3	Not detected	conversion to the crystal form II					
C[C@@H](OC[C@@]1(c2ccccc2)CC[C@]2(CCC(=O)N2)CN1C(=O)OCOP(=O)(O)O)c1cc(C(F)(F)F)cc(C(F)(F)F)c1 [Crystal form II]		Not detected		lowest solvent residue	0.0105	0.1867	dissolved faster, no agglomeration occurred	
C[C@@H](OC[C@@]1(c2ccccc2)CC[C@]2(CCC(=O)N2)CN1C(=O)OCOP(=O)(O)O)c1cc(C(F)(F)F)cc(C(F)(F)F)c1 [Crystal form I]		Not detected	conversion to the crystal form II		0.0293			12.0
C[C@@H](OC[C@@]1(c2ccccc2)CC[C@]2(CCC(=O)N2)CN1C(=O)OCOP(=O)(O)O)c1cc(C(F)(F)F)cc(C(F)(F)F)c1 [amorphous form]							agglomerated in a large amount in the solution, resulting in the inability to completely dissolve the raw material	
